Reference: US9403808B2, “Pyrazine derivatives” (Hoffmann-La Roche Inc., priority 2011, dated 2016)
Where two headings read alike, the source gives them in different places.

How the values were obtained:
human CB2 receptors = human CB2 receptors (Homo sapiens (Human), UniProt P34972); assay: functional cAMP assay, CB2; assay type: cell-based
Method: (§1) CHO cells expressing human CB1 or CB2 receptors are seeded 17-24 hours prior to the experiment 50.000 cells per well in a black 96 well plate with flat clear bottom (Corning Costar #3904) in DMEM (Invitrogen No. 31331), 1×HT supplement, with 10% fetal calf serum and incubated at 5% CO2 and 37° C. in a humidified incubator. The growth medium was exchanged with Krebs Ringer Bicarbonate buffer with 1 mM IBMX and incubated at 30° C. for 30 min. Compounds were added to a final assay volume of 100 μl and incubated for 30 min at 30° C. Using the cAMP-Nano-TRF detection kit the assay (Roche Diagnostics) was stopped by the addition of 50 μl lysis reagent (Tris, NaCl, 1.5% Triton X100, 2.5% NP40, 10% NaN3) and 50 μl detection solutions (20 μM mAb Alexa700-cAMP 1:1, and 48 μM Ruthenium-2-AHA-cAMP) and shaken for 2 h at room temperature. The time-resolved energy transfer is measured by a TRF reader (Evotec Technologies GmbH), equipped with a ND:YAG laser as excitation source. The plate is measured twice with the excitation at 355 nm and at the emission with a delay of 100 ns and a gate of 100 ns, total exposure time 10s at 730 (bandwidth 30 nm) or 645 nm (bandwidth 75 nm), respectively. The FRET signal is calculated as follows: FRET=T730-Alexa730-P(T645-B645) with P=Ru730-B730/Ru645-B645, where T730 is the test well measured at […], T645 is the test well measured at 645 nm, B730 and B645 are the buffer controls at 730 nm and 645 nm, respectively. cAMP content is determined from the function of a standard curve spanning from 10 μM to 0.13 nM cAMP.
(§2) EC50 values were determined using Activity Base analysis (ID Business Solution, Limited). The EC50 values for a wide range of cannabinoid agonists generated from this assay were in agreement with the values published in the scientific literature.

human CB1 receptors = human CB1 receptors (Homo sapiens (Human), UniProt P21554); assay: functional cAMP assay, CB1; assay type: cell-based
Chain of human CB1 receptors (P21554 whole entry): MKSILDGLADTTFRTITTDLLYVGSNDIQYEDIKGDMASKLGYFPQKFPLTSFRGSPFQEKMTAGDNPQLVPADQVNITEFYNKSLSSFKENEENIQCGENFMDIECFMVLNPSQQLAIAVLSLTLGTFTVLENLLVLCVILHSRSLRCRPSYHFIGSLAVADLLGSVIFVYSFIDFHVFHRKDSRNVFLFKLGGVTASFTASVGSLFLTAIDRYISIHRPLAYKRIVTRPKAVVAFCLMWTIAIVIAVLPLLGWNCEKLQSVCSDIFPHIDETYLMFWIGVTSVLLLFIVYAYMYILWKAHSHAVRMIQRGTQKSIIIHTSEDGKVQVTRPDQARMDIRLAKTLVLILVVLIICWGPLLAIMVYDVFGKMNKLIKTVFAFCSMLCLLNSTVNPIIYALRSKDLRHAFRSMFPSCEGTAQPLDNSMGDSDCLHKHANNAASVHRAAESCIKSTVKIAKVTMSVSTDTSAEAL
Method: as §1, §2

[1] = functional cAMP assay, CHO cells expressing human CB2, read-out: human CB2 EC50
[2] = functional cAMP assay, CHO cells expressing human CB1, read-out: human CB1 EC50

Chain of human CB2 receptors (P34972 whole entry): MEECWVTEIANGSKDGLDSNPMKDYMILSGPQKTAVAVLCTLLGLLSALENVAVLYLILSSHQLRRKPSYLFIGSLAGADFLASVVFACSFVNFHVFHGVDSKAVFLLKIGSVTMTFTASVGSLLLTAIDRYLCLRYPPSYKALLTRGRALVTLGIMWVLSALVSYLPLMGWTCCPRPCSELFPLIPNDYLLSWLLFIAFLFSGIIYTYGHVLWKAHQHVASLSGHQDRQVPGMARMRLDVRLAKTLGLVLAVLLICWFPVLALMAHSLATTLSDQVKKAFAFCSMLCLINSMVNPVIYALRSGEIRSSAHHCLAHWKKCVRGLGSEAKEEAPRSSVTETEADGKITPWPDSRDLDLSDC

Compound | EC50 (human CB2 receptors; [1]) [nM] | also measured
NC(=O)[C@H]1CCCC[C@H]1NC(=O)c1cnc(N2CC(F)(F)C2)c(OCC2CC2)n1 (single isomer, unassigned) [Example 81] |  | EC50 (human CB2 receptors): 31.2 nM
Cc1nc([C@@H](NC(=O)c2cnc(C3CC3)c(OCC3CC3)n2)C2CC2)no1 (stereo in doubt) [Example 40, 5-Cyclopropyl-6-cyclopropylmethoxy-pyrazine-2-carboxylic acid [(SR)-cyclopropyl-(5-methyl-[1,2,4]oxadiazol-3-yl)-methyl]-amide] |  | EC50 (human CB2 receptors): 30.8 nM; EC50 (human CB1 receptors): > 10000 nM
Cc1nc([C@H](NC(=O)c2cnc(C3CC3)c(OCC3CC3)n2)C2CC2)no1 (stereo in doubt) [Example 41, 5-Cyclopropyl-6-cyclopropylmethoxy-pyrazine-2-carboxylic acid [(RS)-cyclopropyl-(5-methyl-[1,2,4]oxadiazol-3-yl)-methyl]-amide] |  | EC50 (human CB2 receptors): 518 nM; EC50 (human CB1 receptors): > 10000 nM
Cc1nc([C@@H](NC(=O)c2cnc(N3CC(F)(F)C3)c(OCC3CC3)n2)C2CC2)no1 (stereo in doubt) [Example 42, 6-Cyclopropylmethoxy-5-(3,3-difluoro-azetidin-1-yl)-pyrazine-2-carboxylic acid [(SR)-cyclopropyl-(5-methyl-[1,2,4]oxadiazol-3-yl)-methyl]-amide] |  | EC50 (human CB2 receptors): 28 nM; EC50 (human CB1 receptors): > 10000 nM
Cc1nc([C@H](NC(=O)c2cnc(N3CC(F)(F)C3)c(OCC3CC3)n2)C2CC2)no1 (stereo in doubt) [Example 43, 6-Cyclopropylmethoxy-5-(3,3-difluoro-azetidin-1-yl)-pyrazine-2-carboxylic acid [(RS)-cyclopropyl-(5-methyl-[1,2,4]oxadiazol-3-yl)-methyl]-amide] |  | EC50 (human CB2 receptors): 40.9 nM; EC50 (human CB1 receptors): > 10000 nM
Cc1nc(C(C)(C)NC(=O)c2cnc(C3CC3)c(-c3cccc(Cl)c3)n2)no1 [Example 1, 6-(3-Chloro-phenyl)-5-cyclopropyl-pyrazine-2-carboxylic acid [1-methyl-1-(5-methyl-[1,2,4]oxadiazol-3-yl)-ethyl]amide] | 88.1 | EC50 (human CB1 receptors; [2]): 1150 nM
CC(C)(C#N)NC(=O)c1cnc(C2CC2)c(-c2cccc(Cl)c2)n1 [Example 2, 6-(3-Chloro-phenyl)-5-cyclopropyl-pyrazine-2-carboxylic acid (cyano-dimethyl-methyl)-amide] | 104 | EC50 (human CB1 receptors; [2]): > 10000 nM
Cc1nc(C2(NC(=O)c3cnc(C4CC4)c(-c4cccc(Cl)c4)n3)CCC2)no1 [Example 3, 6-(3-Chloro-phenyl)-5-cyclopropyl-pyrazine-2-carboxylic acid [1-(5-methyl-[1,2,4]oxadiazol-3-yl)-cyclobutyl]-amide] | 156 | EC50 (human CB1 receptors; [2]): > 10000 nM
Cc1nc(C(C)(C)NC(=O)c2cnc(N3CC(F)(F)C3)c(-c3cccc(Cl)c3)n2)no1 [Example 4, 6-(3-Chloro-phenyl)-5-(3,3-difluoro-azetidin-1-yl)-pyrazine-2-carboxylic acid [1-methyl-1-(5-methyl-[1,2,4]oxadiazol-3-yl)-ethyl]-amide] | 108 | EC50 (human CB1 receptors; [2]): > 10000 nM
Cc1nc(C(C)(C)NC(=O)c2cnc(N3CCC3)c(-c3cccc(Cl)c3)n2)no1 [Example 5, 5-Azetidin-1-yl-6-(3-chloro-phenyl)-pyrazine-2-carboxylic acid [1-methyl-1-(5-methyl-[1,2,4]oxadiazol-3-yl)-ethyl]-amide] | 140 | EC50 (human CB1 receptors; [2]): > 10000 nM
CC(C)(NC(=O)c1cnc(C2CC2)c(-c2cccc(Cl)c2)n1)c1nccs1 [Example 6, 6-(3-Chloro-phenyl)-5-cyclopropyl-pyrazine-2-carboxylic acid (1-methyl-1-thiazol-2-yl-ethyl)-amide] | 48 | EC50 (human CB1 receptors; [2]): 892 nM
O=C(NN1CCCCC1)c1cnc(C2CC2)c(-c2cccc(Cl)c2)n1 [Example 7, 6-(3-Chloro-phenyl)-5-cyclopropyl-pyrazine-2-carboxylic acid piperidin-1-ylamide] | 255 | EC50 (human CB1 receptors; [2]): > 10000 nM
NC(=O)[C@@H](NC(=O)c1cnc(C2CC2)c(OCC2CC2)n1)c1ccc(F)cc1 [Example 63, 5-Cyclopropyl-6-cyclopropylmethoxy-pyrazine-2-carboxylic acid [(S)-carbamoyl-(4-fluoro-phenyl)-methyl]-amide] | 96.6 | 
NC(=O)[C@@H](NC(=O)c1cnc(N2CC(F)(F)C2)c(OCC2CC2)n1)c1ccc(F)cc1 [Example 64, 6-Cyclopropylmethoxy-5-(3,3-difluoro-azetidin-1-yl)-pyrazine-2-carboxylic acid [(S)-carbamoyl-(4-fluoro-phenyl)-methyl]-amide] | 31.2 | 
Cc1nc([C@H](CC2CC2)NC(=O)c2cnc(C3CC3)c(OCC3CC3)n2)no1 [Example 65, 5-Cyclopropyl-6-cyclopropylmethoxy-pyrazine-2-carboxylic acid [(S)-2-cyclopropyl-1-(5-methyl-[1,2,4]oxadiazol-3-yl)-ethyl]-amide] | 20.7 | 
COC(=O)[C@H](CC(C)C)NC(=O)c1cnc(N2CC(F)(F)C2)c(OCC2CC2)n1 [Example 66, (S)-2-{[6-Cyclopropylmethoxy-5-(3,3-difluoro-azetidin-1-yl)-pyrazine-2-carbonyl]-amino}-4-methyl-pentanoic acid methyl ester] | 0.4 | 
CC(C)C[C@H](NC(=O)c1cnc(N2CC(F)(F)C2)c(OCC2CC2)n1)C(=O)NCC(F)(F)F [Example 67, 6-Cyclopropylmethoxy-5-(3,3-difluoro-azetidin-1-yl)-pyrazine-2-carboxylic acid [(S)-3-methyl-1-(2,2,2-trifluoro-ethylcarbamoyl)-butyl]-amide] | 57.6 | 
NC(=O)[C@@H](NC(=O)c1cnc(N2CC(F)(F)C2)c(OCC2CC2)n1)c1ccc(Cl)cc1 [Example 68, 6-Cyclopropylmethoxy-5-(3,3-difluoro-azetidin-1-yl)-pyrazine-2-carboxylic acid [(S)-carbamoyl-(4-chloro-phenyl)-methyl]-amide] | 116 | 
CC(C)(CCCO)NC(=O)c1cnc(C2CC2)c(OCC2CC2)n1 [Example 69, 5-Cyclopropyl-6-cyclopropylmethoxy-pyrazine-2-carboxylic acid (4-hydroxy-1,1-dimethyl-butyl)-amide] | 47.4 | 
Cc1oc(-c2ccccc2)nc1CC(C)(C)NC(=O)c1cnc(C2CC2)c(OCC2CC2)n1 [Example 71, 5-Cyclopropyl-6-cyclopropylmethoxy-pyrazine-2-carboxylic acid [1,1-dimethyl-2-(5-methyl-2-phenyl-oxazol-4-yl)-ethyl]-amide] | 201 | 
CC(CC(C)(C)NC(=O)c1cnc(C2CC2)c(OCC2CC2)n1)c1ccncc1 (stereo not drawn) [Example 72, 5-Cyclopropyl-6-cyclopropylmethoxy-pyrazine-2-carboxylic acid (1,1-dimethyl-3-pyridin-4-yl-butyl)-amide] | 92.6 | 
COC(=O)C1(NC(=O)c2cnc(N3CC(F)(F)C3)c(OCC3CC3)n2)CCC1 [Example 73, 1-{[6-Cyclopropylmethoxy-5-(3,3-difluoro-azetidin-1-yl)-pyrazine-2-carbonyl]-amino}-cyclobutanecarboxylic acid methyl ester] | 20.5 | 
CC(C)[C@H](CC(N)=O)NC(=O)c1cnc(C2CC2)c(OCC2CC2)n1 [Example 76, 5-Cyclopropyl-6-cyclopropylmethoxy-pyrazine-2-carboxylic acid ((S)-1-carbamoylmethyl-2-methyl-propyl)-amide] | 16.3 | 
CC(C)[C@H](CC(N)=O)NC(=O)c1cnc(N2CC(F)(F)C2)c(OCC2CC2)n1 [Example 77, 6-Cyclopropylmethoxy-5-(3,3-difluoro-azetidin-1-yl)-pyrazine-2-carboxylic acid ((S)-1-carbamoylmethyl-2-methyl-propyl)-amide] | 6.5 | 
Cc1nc([C@](C)(CC2CC2)NC(=O)c2cnc(N3CC(F)(F)C3)c(OCC3CC3)n2)no1 [Example 78, (+)-6-Cyclopropylmethoxy-5-(3,3-difluoro-azetidin-1-yl)-pyrazine-2-carboxylic acid [2-cyclopropyl-1-methyl-1-(5-methyl-[1,2,4]oxadiazol-3-yl)-ethyl]-amide] | 17.4 | 
Cc1nc([C@@](C)(CC2CC2)NC(=O)c2cnc(N3CC(F)(F)C3)c(OCC3CC3)n2)no1 [Example 79, (−)-6-Cyclopropylmethoxy-5-(3,3-difluoro-azetidin-1-yl)-pyrazine-2-carboxylic acid [2-cyclopropyl-1-methyl-1-(5-methyl-[1,2,4]oxadiazol-3-yl)-ethyl]-amide] | 4 | 
NC(=O)[C@@H]1CCCC[C@@H]1NC(=O)c1cnc(C2CC2)c(OCC2CC2)n1 [Example 82] | 257 | 
NC(=O)[C@H]1CCCC[C@H]1NC(=O)c1cnc(C2CC2)c(OCC2CC2)n1 [Example 83] | 44.4 | 
